Assay results reported in patent publication US8481028B2, “Compositions for preparing a coffee beverage comprising hydrolysed chlorogenic acid” (Nestec S.A., priority 2008, dated 2013).

Tests used:
[1] = tested on: Lactobacillus johnsonii (CNCM I-1225) fresh cells; test: Treatment of NESCAFE PROTECT with L. johnsonii fresh cells, HPLC of chlorogenic and phenolic acids
Protocol: (§1) Cells of L. johnsonii (CNCM I-1225) were grown (7.0 E08 cfu/ml) and centrifuged (5000 g, 10 min), the pellets were resuspended in phosphate buffer (50 mM, pH 7.0) at a concentration of 0.61 g/ml. […] Samples were withdrawn at different reaction times, centrifuged (3000 g, 5 min) and filtered through 0.45 μm pore size syringe filters (Millipore SLHA 025 BS) and analysed by HPLC.
A reaction control was run in parallel under the same reaction conditions but without bacteria.
(§2) Coffee samples were diluted to 1% w/w and analyzed by RP-HPLC on a CC 250/4 Nucleosil 100-5-C18 column (Macherey-Nagel). The eluent system was Millipore water, 0.1% TFA and CH3CN at a flow rate of 1 mL/min. The method allowed the simultaneous determination of caffeoyl quinic acids (CQA), feruloyl quinic acids (FQA), di-caffeoyl quinic acids (diCQA), feruloyl quinic acid-lactones, caffeic acid (CA) and ferulic acid (FA) (absorbance at 325 nm) using external standard calibration curves. Results were expressed relative to the reference at time 0 (t0) or to the reference at the same time without bacteria.

[2] = tested on: Lactobacillus johnsonii (CNCM I-1225) extract (lysed cells); test: Treatment of NESCAFE PROTECT with L. johnsonii extract (lysed cells), HPLC; assay type: biochemical
Protocol: as §1, with “g/ml. The cells were then lysed using the glass-beads method. 600 μl of cells preparation were put in screw-cap tubes and 600 μl of glass-beads were added at 0° C. The tubes were then put into a Mini-Beadbeater for 1 min of intense shaking, cooled in ice, and put another 1 min in the Mini-Beadbeater.” for “g/ml.”, “min),” for “min) and”
as §2

[3] = tested on: spray-dried preparation of Lactobacillus johnsonii (CNCM I-1225); test: Treatment of NESCAFE PROTECT with spray-dried preparation of L. johnsonii, HPLC
Protocol: (§3) To this solution, 10 mg of a spray-dried preparation of Lactobacillus johnsonii (CNCM I-1225) (3.3 E9 cfu/g) were added. The mixture was then incubated at 37° C. and samples were withdrawn at different reaction times. After centrifugation (3000 g, 5 min) and filtration (0.45 μm pore size syringe filters, Millipore SLHA 025 BS) the samples were analysed by HPLC.
as §2

[4] = tested on: spray-dried preparation of Lactobacillus johnsonii (CNCM I-1225); test: Treatment of green coffee extract with spray-dried preparation of L. johnsonii, HPLC
Protocol: as §3, with “30 mg of a dried green coffee extract was dissolved in 1 ml phosphate buffer (50 mM, pH 7.0) or in 1 ml water. To” for “To”, “johnsonii” for “johnsonii (CNCM I-1225)”, “cfu/g) was” for “cfu/g) were”
as §2

[5] = tested on: concentrated preparation of Lactobacillus johnsonii (CNCM I-1225); test: Treatment of NESCAFE with concentrated preparation of L. johnsonii, HPLC
Protocol: 400 mg of NESCAFE SPECIAL FILTRE® (a dried extract of roasted coffee beans) were dissolved in 1 ml of boiling water and the solution was cooled to 37° C. at room temperature. To 250 μl of this coffee solution, different amounts of concentrated preparation of Lactobacillus johnsonii (50 μl, 100 μl, 350 μl, 750 μl) were added and the volume was adjusted to 1 ml with water. The mixtures were than incubated at 37° C. for 2 h and 4 h. After centrifugation (3000 g, 5 min) and filtration the samples were analysed by HPLC.
as §2

[6] = tested on: Lactobacillus johnsonii (CNCM I-1225); test: Treatment of coffee extracts with bacteria cells (L. johnsonii), HPLC
Protocol: as §2
(§4) Tested strains were harvested (centrifugation at 5000 g for 10 min) after having well reached stationary phase, corresponding to 16 hours of incubation in culture medium at 37° C. in anaerobic atmosphere without agitation. For a first activation of the strains, frozen stock cultures were inoculated in fresh media and grown overnight. This pre-culture was used to inoculate the culture.
(§5) After culture of bacteria and centrifugation, the pellets were resuspended in phosphate buffer (pH 7.0) at a concentration of 0.61 g/ml. To 200 μl of this cells preparation, 800 μl of a coffee solution (3%) was added and the mixture was incubated at 37° C. for 4 h, 16 h and 24 h.

[7] = tested on: Bifidobacterium lactis BB12 (CNCM I-3446); test: Treatment of coffee extracts with bacteria cells (B. lactis), HPLC
Protocol: as §2, §4, §5

[8] = tested on: Chlorogenate esterase; test: Incubation of coffee extracts with chlorogenate esterase, HPLC; assay type: biochemical, Aspergillus japonicus
Protocol: as §2
Chlorogenate esterase (24 U/g), derived from Aspergillus japonicus (Kikkoman, Japan). Tannase from Aspergillus oryzae (Kikkoman, Japan) Preparation of Bacteria Cells
A solution of chlorogenate esterase (25 mg) in 200 μl phosphate buffer (pH 7.0) was added to 800 μl of a coffee solution (3%). The mixture was then incubated at 37° C. for 4 h, 16 h and 24 h. After reaction time, the enzymatic activity was stopped by heat treatment (3 min, 90° C.) and the mixture was filtered before analysis.

[9] = NESCAFE PROTECT + Lactobacillus johnsonii, 4 h
[10] = NESCAFE PROTECT + Lactobacillus johnsonii, 16 h
[11] = NESCAFE PROTECT + Lactobacillus johnsonii, 24 h
[12] = green coffee extract + Lactobacillus johnsonii, 4 h
[13] = green coffee extract + Lactobacillus johnsonii, 16 h
[14] = green coffee extract + Lactobacillus johnsonii, 24 h
[15] = NESCAFE PROTECT + Bifidobacterium lactis, 4 h
[16] = NESCAFE PROTECT + Bifidobacterium lactis, 16 h
[17] = NESCAFE PROTECT + Bifidobacterium lactis, 24 h
[18] = green coffee extract + Bifidobacterium lactis, 4 h
[19] = green coffee extract + Bifidobacterium lactis, 16 h
[20] = green coffee extract + Bifidobacterium lactis, 24 h
[21] = NESCAFE PROTECT + Chlorogenate esterase, 4 h
[22] = NESCAFE PROTECT + Chlorogenate esterase, 16 h
[23] = NESCAFE PROTECT + Chlorogenate esterase, 24 h
[24] = green coffee extract + Chlorogenate esterase, 4 h
[25] = green coffee extract + Chlorogenate esterase, 16 h
[26] = green coffee extract + Chlorogenate esterase, 24 h

## caffeoyl quinic acids [CQA]
[1]; 6 h, cell preparation 100 uL
  Concentration in % relative to untreated reference at t = 0: 39%
[1]; 6 h, cell preparation 350 uL
  Concentration in % relative to untreated reference at t = 0: 14%
[1]; 6 h, cell preparation 750 uL
  Concentration in % relative to untreated reference at t = 0: 3%
[1]; 24 h, cell preparation 100 uL
  Concentration in % relative to untreated reference at t = 0: 15%
[1]; 24 h, cell preparation 350 uL
  Concentration in % relative to untreated reference at t = 0: 3%
[1]; 24 h, cell preparation 750 uL
  Concentration in % relative to untreated reference at t = 0: 0%
[2]; 2 h, cell preparation 100.0 uL
  Concentration in % relative to untreated reference at t = 0: 32%
[2]; 2 h, cell preparation 350.0 uL
  Concentration in % relative to untreated reference at t = 0: 10%
[2]; 6 h, cell preparation 100.0 uL
  Concentration in % relative to untreated reference at t = 0: 14%
[2]; 6 h, cell preparation 350.0 uL
  Concentration in % relative to untreated reference at t = 0: 6%
[3]; 2 h
  % relative to untreated control at t = 0: 73%
[3]; 6 h
  % relative to untreated control at t = 0: 67%
[3]; 24 h
  % relative to untreated control at t = 0: 32%
[4]; 4 h
  % relative to untreated control at t = 0: 77%
[4]; 6 h
  % relative to untreated control at t = 0: 69%
[4]; 16 h
  % relative to untreated control at t = 0: 58%
[4]; 24 h
  % relative to untreated control at t = 0: 50%
[5]; cell amount 50 μL/1 mL, 2 h
  % relative to untreated control at t = 0: 92%
[5]; cell amount 50 μL/1 mL, 4 h
  % relative to untreated control at t = 0: 76%
[5]; cell amount 100 μL/1 mL, 2 h
  % relative to untreated control at t = 0: 80%
[5]; cell amount 100 μL/1 mL, 4 h
  % relative to untreated control at t = 0: 60%
[5]; cell amount 350 μL/1 mL, 2 h
  % relative to untreated control at t = 0: 46%
[5]; cell amount 350 μL/1 mL, 4 h
  % relative to untreated control at t = 0: 33%
[5]; cell amount 750 μL/1 mL, 2 h
  % relative to untreated control at t = 0: 25%
[5]; cell amount 750 μL/1 mL, 4 h
  % relative to untreated control at t = 0: 17%
[6]; [9]
  % relative to untreated control at t = 0: 33%
[6]; [10]
  % relative to untreated control at t = 0: 13%
[6]; [11]
  % relative to untreated control at t = 0: 13%
[6]; [12]
  % relative to untreated control at t = 0: 42%
[6]; [13]
  % relative to untreated control at t = 0: 15%
[6]; [14]
  % relative to untreated control at t = 0: 12%
[7]; [15]
  % relative to untreated control at t = 0: 97%
[7]; [16]
  % relative to untreated control at t = 0: 81%
[7]; [17]
  % relative to untreated control at t = 0: 80%
[7]; [18]
  % relative to untreated control at t = 0: 96%
[7]; [19]
  % relative to untreated control at t = 0: 79%
[7]; [20]
  % relative to untreated control at t = 0: 74%
[8]; [21]
  % relative to untreated control at t = 0: 5%
[8]; [22]
  % relative to untreated control at t = 0: 3%
[8]; [23]
  % relative to untreated control at t = 0: 3%
[8]; [24]
  % relative to untreated control at t = 0: 3%
[8]; [25]
  % relative to untreated control at t = 0: 2%
[8]; [26]
  % relative to untreated control at t = 0: 2%

## O=C(O)/C=C/c1ccc(O)c(O)c1 [CA, caffeic acid]
[1]; 6 h, cell preparation 100 uL
  Concentration in % relative to untreated reference at t = 0: 10111%
[1]; 6 h, cell preparation 350 uL
  Concentration in % relative to untreated reference at t = 0: 14282%
[1]; 6 h, cell preparation 750 uL
  Concentration in % relative to untreated reference at t = 0: 13215%
[1]; 24 h, cell preparation 100 uL
  Concentration in % relative to untreated reference at t = 0: 13661%
[1]; 24 h, cell preparation 350 uL
  Concentration in % relative to untreated reference at t = 0: 15981%
[1]; 24 h, cell preparation 750 uL
  Concentration in % relative to untreated reference at t = 0: 13238%
[2]; 2 h, cell preparation 100.0 uL
  Concentration in % relative to untreated reference at t = 0: 10729%
[2]; 2 h, cell preparation 350.0 uL
  Concentration in % relative to untreated reference at t = 0: 13901%
[2]; 6 h, cell preparation 100.0 uL
  Concentration in % relative to untreated reference at t = 0: 12581%
[2]; 6 h, cell preparation 350.0 uL
  Concentration in % relative to untreated reference at t = 0: 16300%
[3]; 2 h
  % relative to untreated control at t = 0: 3598%
[3]; 6 h
  % relative to untreated control at t = 0: 6140%
[3]; 24 h
  % relative to untreated control at t = 0: 7879%
[4]; 4 h
  % relative to untreated control at t = 0: 2673%
[4]; 6 h
  % relative to untreated control at t = 0: 3762%
[4]; 16 h
  % relative to untreated control at t = 0: 5182%
[4]; 24 h
  % relative to untreated control at t = 0: 6145%
[5]; cell amount 50 μL/1 mL, 2 h
  % relative to untreated control at t = 0: 1737%
[5]; cell amount 50 μL/1 mL, 4 h
  % relative to untreated control at t = 0: 1763%
[5]; cell amount 100 μL/1 mL, 2 h
  % relative to untreated control at t = 0: 2885%
[5]; cell amount 100 μL/1 mL, 4 h
  % relative to untreated control at t = 0: 2803%
[5]; cell amount 350 μL/1 mL, 2 h
  % relative to untreated control at t = 0: 5752%
[5]; cell amount 350 μL/1 mL, 4 h
  % relative to untreated control at t = 0: 4491%
[5]; cell amount 750 μL/1 mL, 2 h
  % relative to untreated control at t = 0: 7292%
[5]; cell amount 750 μL/1 mL, 4 h
  % relative to untreated control at t = 0: 5514%
[6]; [9]
  % relative to untreated control at t = 0: 7942%
[6]; [10]
  % relative to untreated control at t = 0: 9429%
[6]; [11]
  % relative to untreated control at t = 0: 9933%
[6]; [12]
  % relative to untreated control at t = 0: 12505%
[6]; [13]
  % relative to untreated control at t = 0: 17148%
[6]; [14]
  % relative to untreated control at t = 0: 18107%
[7]; [15]
  % relative to untreated control at t = 0: 968%
[7]; [16]
  % relative to untreated control at t = 0: 2258%
[7]; [17]
  % relative to untreated control at t = 0: 2840%
[7]; [18]
  % relative to untreated control at t = 0: 1521%
[7]; [19]
  % relative to untreated control at t = 0: 4182%
[7]; [20]
  % relative to untreated control at t = 0: 5283%
[8]; [21]
  % relative to untreated control at t = 0: 10879%
[8]; [22]
  % relative to untreated control at t = 0: 10198%
[8]; [23]
  % relative to untreated control at t = 0: 10750%
[8]; [24]
  % relative to untreated control at t = 0: 18917%
[8]; [25]
  % relative to untreated control at t = 0: 17275%
[8]; [26]
  % relative to untreated control at t = 0: 18318%
